# Results taken from PubChem BioAssay AID2060508 (Molecular Pharmacology Branch, DTP, NCI, 2025).
# System: 454973-116-R2-J3-PDC spheroids, viability, % test/control
# Assay: Anticancer human tumor 454973-116-R2-J3-PDC patient-derived pancreatic carcinoma cell line growth inhibition [GQUAD]
# Details: spheroids with HUVEC and MSC; for IC50: curve of first compound; for viability, T/C: stronger effect = lower value
# In short: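 Viability of tumor cells grown as complex spheroids with endothelial and stromal cells, exposed to drug combinations. Top concentration at or near clinical Cmax (else 10 microM), diluted in half-log increments.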
# [1] = second compound 0.0316 µM, first compound 0.0316 µM
# [2] = second compound 0.0316 µM, first compound 0.1 µM
# [3] = second compound 0.0316 µM, first compound 0.316 µM
# [4] = second compound 0.0316 µM, first compound 1 µM
# [5] = second compound 0.0316 µM, first compound 3.16 µM
# [6] = second compound 0.0316 µM, first compound 10 µM
# [7] = second compound 0.1 µM, first compound 0.0316 µM
# [8] = second compound 0.1 µM, first compound 0.1 µM
# [9] = second compound 0.1 µM, first compound 0.316 µM
# [10] = second compound 0.1 µM, first compound 1 µM
# [11] = second compound 0.1 µM, first compound 3.16 µM
# [12] = second compound 0.1 µM, first compound 10 µM
# [13] = second compound 0.316 µM, first compound 0.0316 µM
# [14] = second compound 0.316 µM, first compound 0.1 µM
# [15] = second compound 0.316 µM, first compound 0.316 µM
# [16] = second compound 0.316 µM, first compound 1 µM
# [17] = second compound 0.316 µM, first compound 3.16 µM
# [18] = second compound 0.316 µM, first compound 10 µM
# [19] = second compound 1 µM, first compound 0.0316 µM
# [20] = second compound 1 µM, first compound 0.1 µM
# [21] = second compound 1 µM, first compound 0.316 µM
# [22] = second compound 1 µM, first compound 1 µM
# [23] = second compound 1 µM, first compound 3.16 µM
# [24] = second compound 1 µM, first compound 10 µM
# [25] = second compound 3.16 µM, first compound 0.0316 µM
# [26] = second compound 3.16 µM, first compound 0.1 µM
# [27] = second compound 3.16 µM, first compound 0.316 µM
# [28] = second compound 3.16 µM, first compound 1 µM
# [29] = second compound 3.16 µM, first compound 3.16 µM
# [30] = second compound 3.16 µM, first compound 10 µM
# [31] = second compound 10 µM, first compound 0.0316 µM
# [32] = second compound 10 µM, first compound 0.1 µM
# [33] = second compound 10 µM, first compound 0.316 µM
# [34] = second compound 10 µM, first compound 1 µM
# [35] = second compound 10 µM, first compound 3.16 µM
# [36] = second compound 10 µM, first compound 10 µM
# 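Note: spheroids exposed to compounds for seven days.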
# 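Throughout, for viability, T/C: 100% = DMSO vehicle control viability.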
structure (smiles),measurement,setting,value
O=C(NO)c1cnc(N2CCN(S(=O)(=O)c3ccc4ccccc4c3)CC2)nc1 + Cc1cnc(CNC(=O)c2c(=O)c3ccc(N4CCCN(C)CC4)nc3n3c2sc2ccccc23)cn1,IC50,second compound 0.0316 µM,198 nM
same,IC50,second compound 0.1 µM,163 nM
same,IC50,second compound 0.316 µM,144 nM
same,IC50,second compound 1 µM,140 nM
same,IC50,second compound 3.16 µM,130 nM
same,IC50,second compound 10 µM,< 31.6 nM
same,"viability, T/C",[1],105%
same,"viability, T/C",[2],81.9%
same,"viability, T/C",[3],28.5%
same,"viability, T/C",[4],1.33%
same,"viability, T/C",[5],0.09%
same,"viability, T/C",[6],0.11%
same,"viability, T/C",[7],87.1%
same,"viability, T/C",[8],68.6%
same,"viability, T/C",[9],24.8%
same,"viability, T/C",[10],1.02%
same,"viability, T/C",[11],0.59%
same,"viability, T/C",[12],0.1%
same,"viability, T/C",[13],67.4%
same,"viability, T/C",[14],61.9%
same,"viability, T/C",[15],23.6%
same,"viability, T/C",[16],0.34%
same,"viability, T/C",[17],0.11%
same,"viability, T/C",[18],0.12%
same,"viability, T/C",[19],59.5%
same,"viability, T/C",[20],64.1%
same,"viability, T/C",[21],21.8%
same,"viability, T/C",[22],0.41%
same,"viability, T/C",[23],0.09%
same,"viability, T/C",[24],0.13%
same,"viability, T/C",[25],67.9%
same,"viability, T/C",[26],60.9%
same,"viability, T/C",[27],13.3%
same,"viability, T/C",[28],0.48%
same,"viability, T/C",[29],0.95%
same,"viability, T/C",[30],0.53%
same,"viability, T/C",[31],0.19%
same,"viability, T/C",[32],21.1%
same,"viability, T/C",[33],0.26%
same,"viability, T/C",[34],0.2%
same,"viability, T/C",[35],0.19%
same,"viability, T/C",[36],0.19%
COc1ccc([C@@H](O)c2cc(-c3ncnc4cc(N5CCOCC5)ccc34)c(F)cc2Cl)nn1 + Cc1[nH]c2ccc(F)cc2c1-c1nc2c3cccnc3c3ncccc3c2[nH]1,IC50,second compound 0.0316 µM,7420 nM
same,IC50,second compound 0.1 µM,> 10000 nM
same,IC50,second compound 0.316 µM,> 10000 nM
same,IC50,second compound 1 µM,9540 nM
same,IC50,second compound 3.16 µM,> 10000 nM
same,IC50,second compound 10 µM,7100 nM
same,"viability, T/C",[1],120%
same,"viability, T/C",[2],101%
same,"viability, T/C",[3],106%
same,"viability, T/C",[4],87.6%
same,"viability, T/C",[5],59.3%
same,"viability, T/C",[6],46.9%
same,"viability, T/C",[7],115%
same,"viability, T/C",[8],104%
same,"viability, T/C",[9],95.3%
same,"viability, T/C",[10],85.4%
same,"viability, T/C",[11],75%
same,"viability, T/C",[12],55.3%
same,"viability, T/C",[13],99.3%
same,"viability, T/C",[14],106%
same,"viability, T/C",[15],85.4%
same,"viability, T/C",[16],91.5%
same,"viability, T/C",[17],65.9%
same,"viability, T/C",[18],53.5%
same,"viability, T/C",[19],98.2%
same,"viability, T/C",[20],97.3%
same,"viability, T/C",[21],96.2%
same,"viability, T/C",[22],75.8%
same,"viability, T/C",[23],70.6%
same,"viability, T/C",[24],48.5%
same,"viability, T/C",[25],94.8%
same,"viability, T/C",[26],94.1%
same,"viability, T/C",[27],92.3%
same,"viability, T/C",[28],91.2%
same,"viability, T/C",[29],66%
same,"viability, T/C",[30],50.7%
same,"viability, T/C",[31],89.2%
same,"viability, T/C",[32],80.2%
same,"viability, T/C",[33],93.9%
same,"viability, T/C",[34],72.2%
same,"viability, T/C",[35],66.9%
same,"viability, T/C",[36],43.4%
